This passage reports IC50 results from patent US9878986B2, “Compounds for selective histone deacetylase inhibitors, and pharmaceutical composition comprising the same” (CHONG KUN DANG PHARMACEUTICAL CORP., priority 2013, dated 2018).

One assay concerns the target HDAC1 (Homo sapiens, UniProt Q13547). Nature of the assay: Test of HDAC activities, HDAC1 Fluorimetric Drug Discovery Assay Kit. The format is biochemical. The arrangement: purchased Enzolifesciences BML-AK511. To be noted: samples at 100, 1000, 10000 nM; 37° C. 60 minutes; fluorescence Ex 390, Em 460; read-out: HDAC inhibitory activities, HDAC1. An outline of the steps: (§1)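 HDAC1 tested at 100, 1000 and 10000 nM; recombinant human HDAC6 at 0.1, 1, 10, 100 and 1000 nM. Reaction 60 min at 37° C, then developer for 30 min at 37° C; fluorescence read at Ex 390/Em 460.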

The next assay has as its target T1, HDAC 6 (Homo sapiens, UniProt Q9UBN7).
T1 sequence (Q9UBN7 1-1215): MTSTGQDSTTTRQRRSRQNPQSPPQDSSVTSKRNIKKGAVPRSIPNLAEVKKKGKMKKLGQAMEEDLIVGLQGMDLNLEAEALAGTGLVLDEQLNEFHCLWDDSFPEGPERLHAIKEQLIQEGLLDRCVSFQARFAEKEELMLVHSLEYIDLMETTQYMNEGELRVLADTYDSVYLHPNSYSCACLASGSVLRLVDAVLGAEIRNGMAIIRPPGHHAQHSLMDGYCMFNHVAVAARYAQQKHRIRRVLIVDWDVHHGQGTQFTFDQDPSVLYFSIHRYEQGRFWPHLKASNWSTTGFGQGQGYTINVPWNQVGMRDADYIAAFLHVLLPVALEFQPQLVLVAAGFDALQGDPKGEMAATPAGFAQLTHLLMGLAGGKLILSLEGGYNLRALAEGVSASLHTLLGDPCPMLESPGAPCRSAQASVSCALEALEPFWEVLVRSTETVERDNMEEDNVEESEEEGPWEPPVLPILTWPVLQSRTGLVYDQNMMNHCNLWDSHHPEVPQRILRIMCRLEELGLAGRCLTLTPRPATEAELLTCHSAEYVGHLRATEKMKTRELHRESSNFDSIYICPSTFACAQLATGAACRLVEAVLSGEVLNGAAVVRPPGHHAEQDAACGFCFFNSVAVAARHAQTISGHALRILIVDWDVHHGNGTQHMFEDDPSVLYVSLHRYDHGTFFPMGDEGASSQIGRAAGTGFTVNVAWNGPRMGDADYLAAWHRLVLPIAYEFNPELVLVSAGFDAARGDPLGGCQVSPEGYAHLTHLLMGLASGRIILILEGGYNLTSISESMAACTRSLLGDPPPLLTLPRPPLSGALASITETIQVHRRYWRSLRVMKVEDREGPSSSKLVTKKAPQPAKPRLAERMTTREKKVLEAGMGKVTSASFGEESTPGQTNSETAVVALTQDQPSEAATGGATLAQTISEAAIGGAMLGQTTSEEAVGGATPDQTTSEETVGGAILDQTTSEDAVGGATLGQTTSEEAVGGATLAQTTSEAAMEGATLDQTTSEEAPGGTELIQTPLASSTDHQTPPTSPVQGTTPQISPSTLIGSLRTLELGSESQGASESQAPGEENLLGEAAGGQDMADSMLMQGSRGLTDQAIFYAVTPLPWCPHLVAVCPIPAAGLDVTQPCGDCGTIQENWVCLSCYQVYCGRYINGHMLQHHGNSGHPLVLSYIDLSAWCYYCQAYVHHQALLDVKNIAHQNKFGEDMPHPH
Nature of the assay: Test of HDAC activities, HDAC6 (fluorimetric). Type of assay: biochemical. The arrangement: purchased Calbiochem 382180. The note with it: samples at 0.1, 1, 10, 100, 1000 nM; 37° C. 60 minutes; fluorescence Ex 390, Em 460; read-out: HDAC inhibitory activities, HDAC6. An outline of the steps: as §1

HDAC1, sequence (Q13547 whole entry): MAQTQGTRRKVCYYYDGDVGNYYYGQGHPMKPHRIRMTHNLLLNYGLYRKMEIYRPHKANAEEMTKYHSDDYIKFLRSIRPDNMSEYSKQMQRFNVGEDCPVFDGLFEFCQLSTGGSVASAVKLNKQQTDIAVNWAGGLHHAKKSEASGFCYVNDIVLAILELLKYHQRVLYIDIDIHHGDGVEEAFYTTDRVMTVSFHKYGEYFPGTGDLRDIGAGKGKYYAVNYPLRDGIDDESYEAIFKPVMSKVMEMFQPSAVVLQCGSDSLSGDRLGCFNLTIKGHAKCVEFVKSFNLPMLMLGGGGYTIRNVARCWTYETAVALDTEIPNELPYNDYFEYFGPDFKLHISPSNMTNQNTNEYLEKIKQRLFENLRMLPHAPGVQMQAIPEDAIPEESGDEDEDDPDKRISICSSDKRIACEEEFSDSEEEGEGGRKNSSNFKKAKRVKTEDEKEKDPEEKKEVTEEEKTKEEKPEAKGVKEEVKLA

Take `O=C(NO)c1ccc(CN(C(=O)N2CC[C@H](F)C2)c2cccc(C(F)(F)F)c2)cc1` [Compound 496, (S)-3-fluoro-N-(4-(hydroxycarbamoyl)benzyl)-N-(3-(trifluoromethyl)phenyl)pyrrolidine-1-carboxamide]: the IC50 on HDAC1 amounted to 1120 nM; on HDAC 6 it was 1 nM.

`O=C(NO)c1ccc(CN(C(=O)N2CCC[C@@H]2CO)c2cccc(C(F)(F)F)c2)cc1` [Compound 497, (R)—N-(4-(hydroxycarbamoyl)benzyl)-2-(hydroxymethyl)-N-(3-(trifluoromethyl)phenyl)pyrrolidine-1-carboxamide]: the IC50 on HDAC1 came out at 936 nM; at HDAC 6, 2 nM.

In the case of `O=C(NO)c1ccc(CN(C(=O)N2CCC[C@H]2C(F)(F)F)c2cccc(C(F)(F)F)c2)cc1` [Compound 498, (S)—N-(4-(hydroxycarbamoyl)benzyl)-2-(trifluoromethyl)-N-(3-(trifluoromethyl)phenyl)pyrrolidine-1-carboxamide], the IC50 is 4710 nM at HDAC1 and 27 nM on HDAC 6.

In the case of `O=C(NO)c1ccc(CN(C(=O)N2CCOCC2)c2cccc(CO)c2)cc1` [Compound 499, N-(4-(hydroxycarbamoyl)benzyl)-N-(3-(hydroxymethyl)phenyl)morpholine-4-carboxamide], the IC50 on HDAC1 was found to be 3630 nM; at HDAC 6, 5 nM.

Turning to `O=C(NO)c1ccc(CN(C(=O)N2CCOCC2)c2cccc(CF)c2)cc1` [Compound 500, N-(3-(fluoromethyl)phenyl)-N-(4-(hydroxycarbamoyl)benzyl)morpholine-4-carboxamide], the results for the IC50 at HDAC1 and at HDAC 6 were 1000 nM and 3 nM, respectively.

For the compound `O=C(NO)c1ccc(CN(C(=O)N2CCOCC2)c2cccc(-c3ccc4c(c3)OCO4)c2)c(F)c1` [Compound 511, N-(3-(benzo[d][1,3]dioxol-5-yl)phenyl)-N-(2-fluoro-4-(hydroxycarbamoyl)benzyl)morpholine-4-carboxamide], the IC50 is 636 nM at HDAC1 and 12 nM at HDAC 6.

For the compound `O=C(NO)c1ccc(CN(C(=O)N2CCOCC2)c2cccc(C3=CCOCC3)c2)c(F)c1` [Compound 512, N-(3-(3,6-dihydro-2H-pyran-4-yl)phenyl)-N-(2-fluoro-4-(hydroxycarbamoyl)benzyl)morpholine-4-carboxamide], the values for the IC50 at HDAC1 and at HDAC 6 were 1450 nM and 14 nM, respectively.

Take `O=C(NO)c1ccc(CN(C(=O)N2CCC(O)CC2)c2cccc(-c3ccc4c(c3)OCO4)c2)c(F)c1` [Compound 513, N-(3-(benzo[d][1,3]dioxol-5-yl)phenyl)-N-(2-fluoro-4-(hydroxycarbamoyl)benzyl)-4-hydroxypiperidine-1-carboxamide]: the IC50 is 654 nM on HDAC1 and 15 nM on HDAC 6.

For the compound `O=C(NO)c1ccc(CN(C(=O)N2CCC(O)CC2)c2cccc(C3=CCOCC3)c2)c(F)c1` [Compound 514, N-(3-(3,6-dihydro-2H-pyran-4-yl)phenyl)-N-(2-fluoro-4-(hydroxycarbamoyl)benzyl)-4-hydroxypiperidine-1-carboxamide], the IC50 on HDAC1 was 1240 nM; at HDAC 6 it was 15 nM.

As for `CC(C)(O)CN1CCC(c2cccc(N(Cc3ccc(C(=O)NO)cc3)C(=O)N3CCOCC3)c2)CC1` [Compound 517, N-(3-(1-(2-hydroxy-2-methylpropyl)piperidine-4-yl)phenyl)-N-(4-(hydroxycarbamoyl)benzyl)morpholine-4-carboxamide], the figures for the IC50 at HDAC1 and on HDAC 6 were 427 nM and 28 nM, respectively.

With `CC(C)(F)CN1CCC(c2cccc(N(Cc3ccc(C(=O)NO)cc3)C(=O)N3CCOCC3)c2)CC1` [Compound 518, N-(3-(1-(2-fluoro-2-methylpropyl)piperidine-4-yl)phenyl)-N-(4-(hydroxycarbamoyl)benzyl)morpholine-4-carboxamide], the IC50 at HDAC1 stood at 495 nM; at HDAC 6 it was 14 nM.

Take `O=C(NO)c1ccc(CN(C(=O)N2CC[C@@H](F)C2)c2ccc(C(F)(F)F)cc2)cc1` [Compound 520, (R)-3-fluoro-N-(4-(hydroxycarbamoyl)benzyl)-N-(4-(trifluoromethyl)phenyl)pyrrolidine-1-carboxamide]: the results for the IC50 on HDAC1 and at HDAC 6 were 1170 nM and 36 nM, respectively.

As for `O=C(NO)c1ccc(CN(C(=O)N2CC[C@H](F)C2)c2ccc(C(F)(F)F)cc2)cc1` [Compound 521, (S)-3-fluoro-N-(4-(hydroxycarbamoyl)benzyl)-N-(4-(trifluoromethyl)phenyl)pyrrolidine-1-carboxamide], the IC50 on HDAC1 turned out to be 261 nM; at HDAC 6, 10 nM.

Turning to `O=C(NO)c1ccc(CN(C(=O)N2CCC[C@@H]2CO)c2ccc(C(F)(F)F)cc2)cc1` [Compound 522, (R)—N-(4-(hydroxycarbamoyl)benzyl)-2-(hydroxymethyl)-N-(4-(trifluoromethyl)phenyl)pyrrolidine-1-carboxamide], the IC50 is 177 nM at HDAC1 and 11 nM at HDAC 6.

With `CC(=O)N1CCN(C(=O)N(Cc2ccc(C(=O)NO)cc2)c2cccc(F)c2)CC1` [Compound 529, 4-acetyl-N-(3-fluorophenyl)-N-(4-(hydroxycarbamoyl)benzyl)piperazine-1-carboxamide], the IC50 on HDAC1 came to 574 nM; on HDAC 6, 2 nM.

Take `O=C(NO)c1ccc(CN(C(=O)N2CCOCC2)c2cccc(F)c2)cc1` [Compound 530, N-(3-fluorophenyl)-N-(4-(hydroxycarbamoyl)benzyl)morpholine-4-carboxamide]: the IC50 came out at 161 nM at HDAC1 and 1.4 nM on HDAC 6.

Take `CC(C)(F)CN1CCN(C(=O)N(Cc2ccc(C(=O)NO)cc2)c2cccc(C(F)(F)F)c2)CC1` [Compound 531, 4-(2-fluoro-2-methylpropyl)-N-(4-(hydroxycarbamoyl)benzyl)-N-(3-(trifluoromethyl)phenyl)piperazine-1-carboxamide]: the values for the IC50 on HDAC1 and on HDAC 6 were 1820 nM and 5.1 nM, respectively.

`O=C(NO)c1ccc(CN(C(=O)N2CCOCC2)c2cccc(C(F)(F)F)c2)c(F)c1` [Compound 532, N-(2-fluoro-4-(hydroxycarbamoyl)benzyl)-N-(3-(trifluoromethyl)phenyl)morpholine-4-carboxamide]: the IC50 on HDAC1 came out at 577 nM; at HDAC 6, 1.9 nM.

Regarding `O=C(NO)c1ccc(CN(C(=O)N2CCOCC2)c2ccc(Cl)cn2)cc1` [Compound 533, N-(5-chloropyridin-2-yl)-N-(4-(hydroxycarbamoyl)benzyl)morpholine-4-carboxamide], the IC50 came out at 1890 nM at HDAC1 and 4.5 nM on HDAC 6.

For `O=C(NO)c1ccc(CN(C(=O)N2CCN(CCN3CCOCC3)CC2)c2ccc(C(F)(F)F)cc2)cc1` [Compound 543, N-(4-(hydroxycarbamoyl)benzyl)-4-(2-morpholinoethyl)-N-(4-(trifluoromethyl)phenyl)piperazine-1-carboxamide], the IC50 is 447 nM at HDAC1 and 9 nM on HDAC 6.

Regarding `O=C(NO)c1ccc(CN(C(=O)N2CCN(c3ccncc3)CC2)c2ccc(C(F)(F)F)cc2)cc1` [Compound 544, N-(4-(hydroxycarbamoyl)benzyl)-4-(pyridin-4-yl)-N-(4-(trifluoromethyl)phenyl)piperazine-1-carboxamide], the IC50 at HDAC1 stood at 503 nM; at HDAC 6, 21 nM.

In the case of `O=C(NO)c1ccc(CN(C(=O)N2CCN(CC(=O)N3CCOCC3)CC2)c2ccc(C(F)(F)F)cc2)cc1` [Compound 545, N-(4-(hydroxycarbamoyl)benzyl)-4-(2-morpholino-2-oxoethyl)-N-(4-(trifluoromethyl)phenyl)piperazine-1-carboxamide], the IC50 is 545 nM at HDAC1 and 17 nM at HDAC 6.

With `O=C(NO)c1ccc(CN(C(=O)N2CCOCC2)c2ccc(C(F)(F)F)cc2)c(F)c1` [Compound 577, N-(2-fluoro-4-(hydroxycarbamoyl)benzyl)-N-(4-(trifluoromethyl)phenyl)morpholine-4-carboxamide], the IC50 was 1000 nM at HDAC1 and 1.2 nM at HDAC 6.
